Experimental data from ChEMBL document CHEMBL1201862, “PubChem BioAssay data set” (2004).
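Exposure lasted 48 hours, with cells grown in 96-well plates and compounds tested at five concentrations. Abbreviation: GI50, concentration required for 50% inhibition of growth.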 Activity calls are given as the source filed them. No stated cut-off is given here; in the data, active = GI50 up to about 1.1 µM and inactive = higher.

What was measured:
Experiment in all cases: NCI-60 cell line screen, 48 h
MCF7 = test system: MCF7
PC-3 = test system: PC-3
OVCAR-5 = test system: OVCAR-5
SK-MEL-5 = test system: SK-MEL-5
UACC-62 = test system: UACC-62
HT-29 = test system: HT-29
TK-10 = test system: TK-10
RPMI-8226 = test system: RPMI-8226
NCI-H23 = test system: NCI-H23
T47D = test system: T47D
Hs-578T = test system: Hs-578T
EKVX = test system: EKVX
HOP-92 = test system: HOP-92
U-251 = test system: U-251
Malme-3M = test system: Malme-3M
MDA-N = test system: MDA-N
MDA-MB-435 = test system: MDA-MB-435
UACC-257 = test system: UACC-257
A549 = test system: A549
SNB-75 = test system: SNB-75

SMILES | GI50 (MCF7) | GI50 (PC-3) | GI50 (OVCAR-5) | GI50 (SK-MEL-5) | GI50 (UACC-62) | GI50 (HT-29) | GI50 (TK-10) | GI50 (RPMI-8226) | GI50 (NCI-H23) | GI50 (T47D) | GI50 (Hs-578T) | GI50 (EKVX) | GI50 (HOP-92) | GI50 (U-251) | GI50 (Malme-3M) | GI50 (MDA-N) | GI50 (MDA-MB-435) | GI50 (UACC-257) | GI50 (A549) | GI50 (SNB-75)
Cc1ccc(OCC2CO2)c(Br)c1 (stereo unspecified) | 14.7 µM (inactive) | 47.3 µM (inactive) | 17.5 µM (inactive) | 18.1 µM (inactive) | 17.7 µM (inactive) | 12.7 µM (inactive) | 30.3 µM (inactive) | 25.1 µM (inactive) | 22.5 µM (inactive) | 63.1 µM (inactive) | 28.5 µM (inactive) | 13.8 µM (inactive) | 14.7 µM (inactive) | 15.2 µM (inactive) | 56.5 µM (inactive) | 19.5 µM (inactive) | 18.7 µM (inactive) | 37.8 µM (inactive) | 20.3 µM (inactive) | 
C=C(C)C1CCC(C(=O)O)CC1 (stereo unspecified) | > 100 µM (inactive) | > 100 µM (inactive) | > 100 µM (inactive) | > 100 µM (inactive) | > 100 µM (inactive) | > 100 µM (inactive) | > 100 µM (inactive) | > 100 µM (inactive) | > 100 µM (inactive) | > 100 µM (inactive) | > 100 µM (inactive) | > 100 µM (inactive) | > 100 µM (inactive) | > 100 µM (inactive) | > 100 µM (inactive) | > 100 µM (inactive) | > 100 µM (inactive) | > 100 µM (inactive) | > 100 µM (inactive) | > 100 µM (inactive)
CCCCC(=O)/C=c1/cc(C)[nH]c2cccc3cnn1c32 | > 100 µM (inactive) | 49.1 µM (inactive) | > 100 µM (inactive) | > 100 µM (inactive) | > 100 µM (inactive) | 60.1 µM (inactive) | > 100 µM (inactive) | 61.9 µM (inactive) | > 100 µM (inactive) | 16 µM (inactive) | > 100 µM (inactive) | > 100 µM (inactive) | 68.9 µM (inactive) | > 100 µM (inactive) | > 100 µM (inactive) | > 100 µM (inactive) | 64 µM (inactive) | > 100 µM (inactive) | > 100 µM (inactive) | 
CCc1nc2c(c(N(C)C)c1C(=O)OC)CCc1ccccc1-2 | 14.4 µM (inactive) | 18 µM (inactive) | 32.2 µM (inactive) | 17 µM (inactive) | 16.9 µM (inactive) | 27.7 µM (inactive) | 35.5 µM (inactive) | 18.7 µM (inactive) | 34.4 µM (inactive) | 11 µM (inactive) | 51.1 µM (inactive) | 25.9 µM (inactive) | 65.2 µM (inactive) | 30.9 µM (inactive) | 30.5 µM (inactive) | 26.2 µM (inactive) | 23.4 µM (inactive) | 26.1 µM (inactive) | 31 µM (inactive) | 35.4 µM (inactive)
CN(C)c1nc(-c2ccccc2)c(C(=O)c2c[nH]c3ccccc23)s1 | 4.48 µM (inactive) | > 31.3 µM (inactive) | > 24.3 µM (inactive) | 8.57 µM (inactive) | 6.05 µM (inactive) | 3.51 µM (inactive) | 7.53 µM (inactive) | 3.16 µM (inactive) | 30 µM (inactive) | > 43.7 µM (inactive) | 4.75 µM (inactive) | 26 µM (inactive) |  | 5.66 µM (inactive) | 11.2 µM (inactive) | 1.93 µM (inactive) | 2.09 µM (inactive) | 6.71 µM (inactive) | 6.62 µM (inactive) | 2.67 µM (inactive)
CCOC(CN(C)C(=O)Nc1ccc(Cl)c(Cl)c1)OCC | > 10 µM (inactive) | > 10 µM (inactive) |  | > 10 µM (inactive) | > 10 µM (inactive) | > 10 µM (inactive) | > 10 µM (inactive) | > 10 µM (inactive) | > 10 µM (inactive) | > 10 µM (inactive) | > 10 µM (inactive) | > 10 µM (inactive) | > 10 µM (inactive) | > 10 µM (inactive) | > 10 µM (inactive) | > 10 µM (inactive) | > 10 µM (inactive) | > 10 µM (inactive) | > 10 µM (inactive) | > 10 µM (inactive)
C/C(=N\n1c(Cc2ccccc2)n[nH]c1=O)c1ccccc1 | > 100 µM (inactive) | > 100 µM (inactive) | > 100 µM (inactive) | > 100 µM (inactive) | > 100 µM (inactive) | > 100 µM (inactive) | > 100 µM (inactive) | > 100 µM (inactive) | > 100 µM (inactive) | > 100 µM (inactive) | > 100 µM (inactive) | 94.4 µM (inactive) | 26.8 µM (inactive) | > 100 µM (inactive) | > 100 µM (inactive) | > 100 µM (inactive) | > 100 µM (inactive) | > 100 µM (inactive) | > 100 µM (inactive) | 
COc1ccc2c3c1O[C@H]1[C@@H](O)CC[C@@]4(O)[C@@H](C2)N(C)CC[C@]314 | > 100 µM (inactive) | > 100 µM (inactive) | > 100 µM (inactive) | > 100 µM (inactive) | > 100 µM (inactive) | > 100 µM (inactive) | > 100 µM (inactive) | > 100 µM (inactive) | > 100 µM (inactive) | > 100 µM (inactive) | > 100 µM (inactive) | > 100 µM (inactive) | > 100 µM (inactive) | > 100 µM (inactive) | > 100 µM (inactive) | > 100 µM (inactive) | > 100 µM (inactive) | > 100 µM (inactive) | > 100 µM (inactive) | 
CP(=O)(O)C(N)c1ccccc1 (stereo unspecified) | > 100 µM (inactive) | > 100 µM (inactive) | > 100 µM (inactive) | > 100 µM (inactive) | > 100 µM (inactive) | > 100 µM (inactive) | > 100 µM (inactive) | > 100 µM (inactive) | > 100 µM (inactive) | > 100 µM (inactive) | > 100 µM (inactive) | > 100 µM (inactive) | > 100 µM (inactive) | > 100 µM (inactive) | > 100 µM (inactive) | > 100 µM (inactive) | > 100 µM (inactive) | > 100 µM (inactive) | > 100 µM (inactive) | 
CC1OCC2OC(C)OC(C3C4=C(CC(C)(C)CC4=O)OC4=C3C(=O)CC(C)(C)C4)C2O1 (stereo unspecified) | > 100 µM (inactive) | > 100 µM (inactive) | > 100 µM (inactive) | > 100 µM (inactive) | > 100 µM (inactive) | > 100 µM (inactive) | > 100 µM (inactive) | > 100 µM (inactive) | > 100 µM (inactive) | > 100 µM (inactive) | > 100 µM (inactive) | > 100 µM (inactive) | > 100 µM (inactive) |  | > 100 µM (inactive) | > 100 µM (inactive) | > 100 µM (inactive) | > 100 µM (inactive) | > 100 µM (inactive) | > 100 µM (inactive)
NC(=O)NC(=O)C1CCCCC1C(=O)O (stereo unspecified) | > 100 µM (inactive) | > 100 µM (inactive) | > 100 µM (inactive) | > 100 µM (inactive) | > 100 µM (inactive) | > 100 µM (inactive) | > 100 µM (inactive) | > 100 µM (inactive) | > 100 µM (inactive) | > 100 µM (inactive) | > 100 µM (inactive) | > 100 µM (inactive) | > 100 µM (inactive) | > 100 µM (inactive) | > 100 µM (inactive) | > 100 µM (inactive) | > 100 µM (inactive) | > 100 µM (inactive) | > 100 µM (inactive) | > 100 µM (inactive)
C/C(=C\[Si](C)(C)c1ccco1)C(C)(O)[C@H](C)O (stereo partly specified) | 32.9 µM (inactive) | 38.9 µM (inactive) | > 100 µM (inactive) | 40.7 µM (inactive) | > 100 µM (inactive) | 41 µM (inactive) | 97.3 µM (inactive) | 30.8 µM (inactive) | 30.2 µM (inactive) | 16.4 µM (inactive) | 55.3 µM (inactive) | 42.6 µM (inactive) | 46.1 µM (inactive) | > 100 µM (inactive) | 52.8 µM (inactive) | 54.6 µM (inactive) | 45.3 µM (inactive) | 24.6 µM (inactive) | 48.2 µM (inactive) | 
CC1=CC2(C)C=C[C@@H]1C(=O)[C@@]1(C)CC[C@@](O)(C(C)C)[C@H]1CC2 | 28.4 µM (inactive) | 24.2 µM (inactive) | 17.9 µM (inactive) | 19.7 µM (inactive) | 20.1 µM (inactive) | 16.1 µM (inactive) | 36.6 µM (inactive) | 26.5 µM (inactive) | 19.1 µM (inactive) | 25.8 µM (inactive) | 25.4 µM (inactive) | 24.4 µM (inactive) | 14.4 µM (inactive) | 18.1 µM (inactive) | 19.4 µM (inactive) | 21.8 µM (inactive) | 20.3 µM (inactive) | 16.4 µM (inactive) | 34.6 µM (inactive) | 20.9 µM (inactive)
CCN(CC)CCCNc1ncc(C)c2c1c1ccc3c(O)cccc3c1n2C | 0.191 µM (active) | 0.687 µM (active) | 5.57 µM (inactive) | 6.76 µM (inactive) | 18 µM (inactive) | 1.21 µM (inactive) | 10.5 µM (inactive) | 1.47 µM (inactive) | 1.8 µM (inactive) | 17.9 µM (inactive) | 1.68 µM (inactive) | 3.02 µM (inactive) | 9.16 µM (inactive) | 1.1 µM (active) | 14.7 µM (inactive) | 1.65 µM (inactive) | 8.07 µM (inactive) | 16.3 µM (inactive) | 0.389 µM (active) | 1.81 µM (inactive)
